We go through 11 molecules from patent publication US20250230193A1, “CYCLIC COMPOUND HAVING SELECTIVE KRAS INHIBITORY EFFECT ON HRAS AND NRAS” (CHUGAI SEIYAKU KABUSHIKI KAISHA, priority 2022, published 2025).

Assay [1] concerns the target GDP-bound HRAS wild-type protein (Homo sapiens, UniProt P01112). As to the kind of experiment: Binding to HRAS by surface plasmon resonance (SPR), Single Cycle Kinetics. The conditions noted are these: KD ratio, GDP-bound HRAS wild-type vs GDP-bound KRAS wild-type, SPR. In general terms: SPR reads the build-up and loss of mass on a sensor chip optically.
The target in assay [2] is GDP-bound NRAS wild-type protein (Homo sapiens, UniProt P01111). The experiment in a line: Binding to NRAS by surface plasmon resonance (SPR), Single Cycle Kinetics. The conditions noted are these: KD ratio, GDP-bound NRAS wild-type vs GDP-bound KRAS wild-type, SPR.
GDP-bound NRAS wild-type protein, sequence (P01111 whole entry): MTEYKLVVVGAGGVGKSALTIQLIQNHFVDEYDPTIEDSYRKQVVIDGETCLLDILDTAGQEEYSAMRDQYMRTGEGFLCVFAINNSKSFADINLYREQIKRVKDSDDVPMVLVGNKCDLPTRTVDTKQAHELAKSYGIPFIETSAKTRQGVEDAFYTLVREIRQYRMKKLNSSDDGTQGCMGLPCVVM

GDP-bound HRAS wild-type protein, sequence (P01112 whole entry): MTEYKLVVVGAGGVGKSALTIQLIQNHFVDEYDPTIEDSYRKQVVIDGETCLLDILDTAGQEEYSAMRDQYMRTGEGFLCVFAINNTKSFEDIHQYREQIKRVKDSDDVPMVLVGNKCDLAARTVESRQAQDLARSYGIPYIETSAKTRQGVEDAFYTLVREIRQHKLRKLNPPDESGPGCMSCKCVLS

In the case of `CCO[C@@H]1C[C@H]2C(=O)NC3(CCC3)C(=O)N(C)[C@@H](C3CCCC3)C(=O)N(C)[C@H](C(=O)N3CCOCC3)CC(=O)N(C)[C@@H](CC(C)C)C(=O)N[C@@H]([C@@H](C)CC)C(=O)N(C)CC(=O)N(C)[C@H]3C[C@H]4C[C@H]4CN(C3=O)[C@@H](Cc3ccc(C(F)(F)F)cc3)C(=O)N(C)CC(=O)N[C@@H](CCc3cc(F)c(C(F)(F)F)c(F)c3)C(=O)N2C1` [PP0829], the “HRAS/KRAS (ratio of KD value with respect to HRAS to KD value with respect to KRAS)” value in assay [1] is “C (A compound having a KD ratio of 0.1 or more and less than 3 is denoted as C)”. Moreover, in assay [2], the “NRAS/KRAS (ratio of KD value with respect to NRAS to KD value with respect to KRAS)” value is “B (a compound having 3 or more and less than 10 is denoted as B)”.

Take `CCO[C@@H]1C[C@H]2C(=O)NC3(CCC3)C(=O)N(C)[C@@H](C3CCCC3)C(=O)N(C)[C@H](C(=O)N(C)C)CC(=O)N(C)[C@@H](CC)C(=O)N[C@@H]([C@@H](C)CC)C(=O)N(C)CC(=O)N(C)[C@H]3C[C@H]4C[C@H]4CN(C3=O)[C@@H](Cc3ccc(C(F)(F)F)cc3)C(=O)N(C)CC(=O)N[C@@H](CCc3cc(F)c(C(F)(F)F)c(F)c3)C(=O)N2C1` [PP0830]: the “HRAS/KRAS (ratio of KD value with respect to HRAS to KD value with respect to KRAS)” value in assay [1] is “C (A compound having a KD ratio of 0.1 or more and less than 3 is denoted as C)”. In assay [2], the “NRAS/KRAS (ratio of KD value with respect to NRAS to KD value with respect to KRAS)” value was “C (A compound having a KD ratio of 0.1 or more and less than 3 is denoted as C)”.

On to `CCO[C@@H]1C[C@H]2C(=O)NC3(CC(F)(F)C3)C(=O)N(C)[C@@H](C3CCCC3)C(=O)N(C)[C@H](C(=O)N3CCOCC3)CC(=O)N(C)[C@@H](CC(C)C)C(=O)N[C@@H]([C@@H](C)CC)C(=O)N(C)CC(=O)N(C)[C@H]3C[C@H]4C[C@H]4CN(C3=O)[C@@H](Cc3ccc(C(F)(F)F)cc3)C(=O)N(C)CC(=O)N[C@@H](CCc3cc(F)c(C(F)(F)F)c(F)c3)C(=O)N2C1` [PP0831], for which the “HRAS/KRAS (ratio of KD value with respect to HRAS to KD value with respect to KRAS)” value in assay [1] was “C (A compound having a KD ratio of 0.1 or more and less than 3 is denoted as C)”. In addition, the “NRAS/KRAS (ratio of KD value with respect to NRAS to KD value with respect to KRAS)” value in assay [2] was “C (A compound having a KD ratio of 0.1 or more and less than 3 is denoted as C)”.

Regarding `CCO[C@@H]1C[C@H]2C(=O)NC3(CCC3)C(=O)N(C)[C@@H](C3CCCC3)C(=O)N(C)[C@H](C(=O)N3CCOCC3)CC(=O)N(C)[C@@H](CC(C)C)C(=O)N[C@@H]([C@@H](C)CC)C(=O)N(C)CC(=O)N(C)[C@H]3CC=CCN(C3=O)[C@@H](Cc3ccc(C(F)(F)F)cc3)C(=O)N(C)CC(=O)N[C@@H](CCc3cc(F)c(C(F)(F)F)c(F)c3)C(=O)N2C1` [PP0832], the “HRAS/KRAS (ratio of KD value with respect to HRAS to KD value with respect to KRAS)” value in assay [1] is “C (A compound having a KD ratio of 0.1 or more and less than 3 is denoted as C)”. In assay [2], the “NRAS/KRAS (ratio of KD value with respect to NRAS to KD value with respect to KRAS)” value is “C (A compound having a KD ratio of 0.1 or more and less than 3 is denoted as C)”.

On to `CC[C@H](C)[C@@H]1NC(=O)[C@H](COC)N(C)C(=O)C[C@@H](C(=O)N2CCOCC2)N(C)C(=O)[C@H](C2CCCC2)N(C)C(=O)C2(CCC2)NC(=O)[C@@H]2CC(F)(F)CN2C(=O)[C@H](CCc2cc(F)c(C(F)(F)F)c(F)c2)NC(=O)CN(C)C(=O)[C@H](Cc2ccc(C(F)(F)F)cc2)N2CCCCC[C@@H](C2=O)N(C)C(=O)CN(C)C1=O` [PP0834], for which the “HRAS/KRAS (ratio of KD value with respect to HRAS to KD value with respect to KRAS)” value in assay [1] is “B (a compound having 3 or more and less than 10 is denoted as B)”. In addition, the “NRAS/KRAS (ratio of KD value with respect to NRAS to KD value with respect to KRAS)” value in assay [2] is “A (a compound having 10 or more and less than 20 is denoted as A)”.

As for `CC[C@H](C)[C@@H]1NC(=O)[C@H](COC)N(C)C(=O)C[C@@H](C(=O)N2CCOCC2)N(C)C(=O)[C@H](C2CCCC2)N(C)C(=O)C2(CCC2)NC(=O)[C@@H]2C[C@H](OC)CN2C(=O)[C@H](CCc2cc(F)c(C(F)(F)F)c(F)c2)NC(=O)CN(C)C(=O)[C@H](Cc2ccc(C(F)(F)F)cc2)N2CCCCC[C@@H](C2=O)N(C)C(=O)CN(C)C1=O` [PP0836], the “HRAS/KRAS (ratio of KD value with respect to HRAS to KD value with respect to KRAS)” value in assay [1] is “B (a compound having 3 or more and less than 10 is denoted as B)”. Further, the “NRAS/KRAS (ratio of KD value with respect to NRAS to KD value with respect to KRAS)” value in assay [2] is “B (a compound having 3 or more and less than 10 is denoted as B)”.

For the molecule `CC[C@H](C)[C@@H]1NC(=O)[C@H](COC)N(C)C(=O)C[C@@H](C(=O)N2CCOCC2)N(C)C(=O)[C@H](C2CCCC2)N(C)C(=O)C2(CCC2)NC(=O)[C@@H]2C[C@@H](OC)CN2C(=O)[C@H](CCc2cc(F)c(C(F)(F)F)c(F)c2)NC(=O)CN(C)C(=O)[C@H](Cc2ccc(C(F)(F)F)cc2)N2CCCCC[C@@H](C2=O)N(C)C(=O)CN(C)C1=O` [PP0837], the “HRAS/KRAS (ratio of KD value with respect to HRAS to KD value with respect to KRAS)” value in assay [1] was “B (a compound having 3 or more and less than 10 is denoted as B)”. In addition, the “NRAS/KRAS (ratio of KD value with respect to NRAS to KD value with respect to KRAS)” value in assay [2] is “B (a compound having 3 or more and less than 10 is denoted as B)”.

Turning to `CCCO[C@@H]1C[C@H]2C(=O)NC3(CCC3)C(=O)N(C)[C@@H](C3CCCC3)C(=O)N(C)[C@H](C(=O)N3CCOCC3)CC(=O)N(C)[C@@H](COC)C(=O)N[C@@H]([C@@H](C)CC)C(=O)N(C)CC(=O)N(C)[C@H]3CCCCCN(C3=O)[C@@H](Cc3ccc(C(F)(F)F)cc3)C(=O)N(C)CC(=O)N[C@@H](CCc3cc(F)c(C(F)(F)F)c(F)c3)C(=O)N2C1` [PP0838], in assay [1], the “HRAS/KRAS (ratio of KD value with respect to HRAS to KD value with respect to KRAS)” value was “B (a compound having 3 or more and less than 10 is denoted as B)”. For the same molecule, in assay [2], the “NRAS/KRAS (ratio of KD value with respect to NRAS to KD value with respect to KRAS)” value is “B (a compound having 3 or more and less than 10 is denoted as B)”.

On to `CC[C@H](C)[C@@H]1NC(=O)[C@H](COC)N(C)C(=O)C[C@@H](C(=O)N2CCOCC2)N(C)C(=O)[C@H](C2CCCC2)N(C)C(=O)C2(CCC2)NC(=O)[C@@H]2C[C@@H](OCC(C)C)CN2C(=O)[C@H](CCc2cc(F)c(C(F)(F)F)c(F)c2)NC(=O)CN(C)C(=O)[C@H](Cc2ccc(C(F)(F)F)cc2)N2CCCCC[C@@H](C2=O)N(C)C(=O)CN(C)C1=O` [PP0839], for which the “HRAS/KRAS (ratio of KD value with respect to HRAS to KD value with respect to KRAS)” value in assay [1] was “B (a compound having 3 or more and less than 10 is denoted as B)”. Moreover, the “NRAS/KRAS (ratio of KD value with respect to NRAS to KD value with respect to KRAS)” value in assay [2] was “B (a compound having 3 or more and less than 10 is denoted as B)”.

Regarding `CC[C@H](C)[C@@H]1NC(=O)[C@H](COC)N(C)C(=O)C[C@@H](C(=O)N2CCOCC2)N(C)C(=O)[C@H](C2CCCC2)N(C)C(=O)C2(CCC2)NC(=O)[C@@H]2CCN2C(=O)[C@H](CCc2cc(F)c(C(F)(F)F)c(F)c2)NC(=O)CN(C)C(=O)[C@H](Cc2ccc(C(F)(F)F)cc2)N2CCCCC[C@@H](C2=O)N(C)C(=O)CN(C)C1=O` [PP0840], in assay [1], the “HRAS/KRAS (ratio of KD value with respect to HRAS to KD value with respect to KRAS)” value was “B (a compound having 3 or more and less than 10 is denoted as B)”. The “NRAS/KRAS (ratio of KD value with respect to NRAS to KD value with respect to KRAS)” value in assay [2] was “B (a compound having 3 or more and less than 10 is denoted as B)”.

For `CCO[C@@H]1C[C@H]2C(=O)NC3(CCCC3)C(=O)N(C)[C@@H](C3CCCC3)C(=O)N(C)[C@H](C(=O)N3CCOCC3)CC(=O)N(C)[C@@H](COC)C(=O)N[C@@H]([C@@H](C)CC)C(=O)N(C)CC(=O)N(C)[C@H]3CCCCCN(C3=O)[C@@H](Cc3ccc(C(F)(F)F)cc3)C(=O)N(C)CC(=O)N[C@@H](CCc3cc(F)c(C(F)(F)F)c(F)c3)C(=O)N2C1` [PP0841], in assay [1], the “HRAS/KRAS (ratio of KD value with respect to HRAS to KD value with respect to KRAS)” value was “B (a compound having 3 or more and less than 10 is denoted as B)”. Also, in assay [2], the “NRAS/KRAS (ratio of KD value with respect to NRAS to KD value with respect to KRAS)” value is “B (a compound having 3 or more and less than 10 is denoted as B)”.
